Measurements published in ChEMBL document CHEMBL1201862, “PubChem BioAssay data set” (2004).
Calls of active or inactive are those of the source.

Assays:
[1] = OVCAR8 cell viability loss – plate reader, dry powder samples, PAX8 project, dose response (AID 743197); type: functional, cell-based; details: OVCAR-8
[2] = OVCAR-3 cell viability loss – plate reader, dry powder samples, PAX8 inhibitor project, dose response (AID 743044); type: functional, cell-based
[3] = IGROV1 cell killing – plate reader, dry powder samples, PAX8 inhibitor project, dose response (AID 743043); type: functional, cell-based; details: IGROV-1
Paired box protein Pax-8 = Paired box protein Pax-8 (Homo sapiens, UniProt Q06710); assay: PAX8 transcriptional activity inhibition in RMG-I – RMG-I cells, luciferase, cherry-pick, dose response (AID 687027); type: functional, cell-based;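 also: luciferase reporter driven by Pax8 target thyroperoxidase promoter measured by SteadyGlo luminescence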
[4] = A2780 cell killing – plate reader, dry powder samples, cytotoxicity control, dose response (AID 743046); type: functional, cell-based
[5] = Luminescence-based cell-based high throughput dose response assay to identify activators of the DAF-12 from the parasite S. stercoralis (ssDAF-12).; type: functional
[6] = viability loss in HepG2 hepatoma cells – cell-based, ATP luminescence, cherry-pick, activator set 2, cytotoxicity control, dose response (AID 1053143); type: functional
[7] = target: T1, Trace amine-associated receptor 1 (Homo sapiens, UniProt Q96RJ0); assay: Counterscreen for agonists of the human trace amine associated receptor 1 (hTAAR1): Fluorescence-based cell-based high throughput dose response assay to identify hTAAR1 agonist that also desensitize TAAR1 receptor response.; type: functional
T1 sequence (Q96RJ0 whole entry): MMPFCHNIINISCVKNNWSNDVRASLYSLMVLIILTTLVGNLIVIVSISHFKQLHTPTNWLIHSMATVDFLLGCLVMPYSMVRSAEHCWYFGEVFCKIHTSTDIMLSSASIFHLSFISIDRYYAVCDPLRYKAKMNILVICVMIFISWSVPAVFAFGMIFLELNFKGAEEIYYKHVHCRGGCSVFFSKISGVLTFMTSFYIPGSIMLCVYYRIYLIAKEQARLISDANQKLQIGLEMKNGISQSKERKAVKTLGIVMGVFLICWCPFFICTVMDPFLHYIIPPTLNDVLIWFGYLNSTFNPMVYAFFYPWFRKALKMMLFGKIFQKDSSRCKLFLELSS

[8] = target: T1, Trace amine-associated receptor 1; assay: Fluorescence-based cell-based high throughput dose response assay to identify agonists of the human trace amine associated receptor 1 (TAAR1).; type: functional
cells [9] = type: functional, cell-based
cells [10] = type: functional, cell-based; remark: listed apart in the source
[11] = target: T2, Low molecular weight phosphotyrosine protein phosphatase (Homo sapiens, UniProt P24666); type: functional; details: read-out: IC50_Mean
T2 sequence (P24666 whole entry): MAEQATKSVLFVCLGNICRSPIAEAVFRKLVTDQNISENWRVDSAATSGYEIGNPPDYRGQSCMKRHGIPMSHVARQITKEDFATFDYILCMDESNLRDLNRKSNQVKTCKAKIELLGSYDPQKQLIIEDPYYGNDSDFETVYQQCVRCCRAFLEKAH

[12] = target: T3, Corticotropin-releasing factor receptor 2/Corticotropin-releasing factor-binding protein (Homo sapiens, UniProt P24387+Q13324); assay: activators of CRF receptor 2 with binding protein – uHTS hits, confirmation (AID 602473); type: functional; details: read-out: EC50_Mean
T3 sequence (Q13324 whole entry): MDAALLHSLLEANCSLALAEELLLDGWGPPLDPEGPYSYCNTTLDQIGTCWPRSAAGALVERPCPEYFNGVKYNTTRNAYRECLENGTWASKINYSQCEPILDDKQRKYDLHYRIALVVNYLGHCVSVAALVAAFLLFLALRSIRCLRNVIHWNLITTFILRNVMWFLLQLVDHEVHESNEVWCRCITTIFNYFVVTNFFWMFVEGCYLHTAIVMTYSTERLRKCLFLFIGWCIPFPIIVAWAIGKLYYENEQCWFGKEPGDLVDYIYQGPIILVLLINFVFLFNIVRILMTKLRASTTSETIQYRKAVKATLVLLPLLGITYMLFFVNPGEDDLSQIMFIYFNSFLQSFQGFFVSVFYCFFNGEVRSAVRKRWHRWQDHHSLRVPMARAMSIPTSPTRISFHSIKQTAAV
T3 sequence (P24387 whole entry): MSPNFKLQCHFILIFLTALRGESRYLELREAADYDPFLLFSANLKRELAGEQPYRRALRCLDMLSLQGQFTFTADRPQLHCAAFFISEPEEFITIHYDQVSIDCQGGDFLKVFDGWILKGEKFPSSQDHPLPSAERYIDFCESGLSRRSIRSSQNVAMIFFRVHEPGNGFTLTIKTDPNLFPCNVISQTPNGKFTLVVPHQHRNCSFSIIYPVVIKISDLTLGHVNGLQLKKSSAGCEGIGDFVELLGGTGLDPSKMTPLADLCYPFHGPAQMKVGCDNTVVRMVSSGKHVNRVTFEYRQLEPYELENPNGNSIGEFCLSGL

[13] = target: T2, Low molecular weight phosphotyrosine protein phosphatase; type: functional; details: read-out: IC50_Mean; remark: listed apart in the source
[14] = target: T3, Corticotropin-releasing factor receptor 2/Corticotropin-releasing factor-binding protein; assay: Dose Response confirmation of uHTS hits for small molecule antagonists of the CRF-binding protein and CRF-R2 receptor complex.; type: functional; details: read-out: IC50_Mean
[15] = target: T4, Heat shock factor protein 1 (Mus musculus, UniProt P38532); assay: decrease of HSF1-responsive luciferase luminescence – cell-based, NIH3T3, dose retest, confirmation (AID 2382); type: functional;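 also: NIH3T3 fibroblasts with HSF1-driven luciferase reporter stressed by proteasome inhibitor MG132; luminescence from HSF1-driven luciferase expression after 8 hours of MG132 stress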
T4 sequence (P38532 whole entry): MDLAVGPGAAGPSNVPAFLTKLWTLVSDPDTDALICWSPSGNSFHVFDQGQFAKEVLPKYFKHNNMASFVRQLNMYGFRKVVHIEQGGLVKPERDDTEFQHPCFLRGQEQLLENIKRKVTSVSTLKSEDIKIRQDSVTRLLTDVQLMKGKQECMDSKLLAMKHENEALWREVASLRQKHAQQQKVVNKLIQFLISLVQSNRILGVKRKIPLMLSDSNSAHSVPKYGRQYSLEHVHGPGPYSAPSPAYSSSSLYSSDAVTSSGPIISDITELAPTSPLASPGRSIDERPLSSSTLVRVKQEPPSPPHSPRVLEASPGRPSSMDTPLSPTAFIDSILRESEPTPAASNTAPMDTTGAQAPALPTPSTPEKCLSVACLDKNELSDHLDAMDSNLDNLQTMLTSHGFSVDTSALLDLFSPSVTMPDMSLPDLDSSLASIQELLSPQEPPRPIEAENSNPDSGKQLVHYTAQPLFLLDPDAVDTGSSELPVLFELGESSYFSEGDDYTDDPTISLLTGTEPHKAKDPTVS

Paired box protein Pax-8, sequence (Q06710 whole entry): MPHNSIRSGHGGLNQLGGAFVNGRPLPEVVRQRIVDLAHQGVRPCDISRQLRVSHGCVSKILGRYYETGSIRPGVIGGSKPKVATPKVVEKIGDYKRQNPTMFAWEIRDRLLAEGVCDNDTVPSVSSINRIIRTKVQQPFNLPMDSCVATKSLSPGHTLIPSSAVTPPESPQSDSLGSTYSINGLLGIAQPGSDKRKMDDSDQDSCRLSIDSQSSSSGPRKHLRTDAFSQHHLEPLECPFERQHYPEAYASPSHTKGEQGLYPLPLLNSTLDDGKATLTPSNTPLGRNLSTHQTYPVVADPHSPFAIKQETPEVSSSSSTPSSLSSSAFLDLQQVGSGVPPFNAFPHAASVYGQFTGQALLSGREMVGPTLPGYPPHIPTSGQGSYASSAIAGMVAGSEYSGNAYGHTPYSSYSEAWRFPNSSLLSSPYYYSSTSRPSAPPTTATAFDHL

C[C@@H]1CN([C@H](C)CO)C(=O)c2cc(NC(=O)Nc3ccc(C(F)(F)F)cc3)ccc2O[C@@H](C)CCCCO[C@H]1CN(C)C(=O)Nc1ccc(C(F)(F)F)cc1
AC50 [1]: 52.3 µM (active)
AC50 [2]: 12.4 µM (active)
AC50 [3]: 63 µM (active)
AC50 (Paired box protein Pax-8): 1.89 µM (active)
AC50 [4]: 34.1 µM (active)

O=[N+]([O-])c1cc(Cl)ccc1-c1nc(-c2ccccc2)no1
IC50 [5]: > 67.6 µM (inactive)

CC1CCCN(c2nc3ccsc3c(=O)s2)C1 (stereo unspecified)
AC50 [6]: > 52 µM (inactive)

COc1ccc(C(c2nnnn2CCc2ccccc2)N2CCN(C3CCCC3)CC2)cc1 (stereo unspecified)
IC50 [7]: 8.17 µM (active)
EC50 [8]: 1.62 µM (active)
EC50 (cells [9]): > 29.9 µM (inactive)
IC50 (cells [10]): > 29.9 µM (inactive)

Cc1[nH]c(=O)c(C#N)cc1-c1csc(-c2ccccc2)n1
IC50 [11]: 27 µM (inactive)
EC50 [12]: > 53 µM (inactive)
IC50 [13]: 67.8 µM (inactive)
IC50 [14]: > 47.1 µM (inactive)
EC50 [15]: > 195 µM (not active)
